Measurements as given in patent US20250042848A1, “DEUTERATED FUNCTIONALIZED DERIVATIVES OF alpha-ALANINE, IN [sequence] FOR THE TREATMENT OF NEUROLOGICAL DISEASES” (UNIWERSYTET JAGIELLONSKI, priority 2021, published 2025).

Legend:
Type in all cases: in vivo
[1] = system: maximal electroshock seizures in mice; assay: Maximal electroshock seizure test (MES)
Method: (§1) Initial screening was performed on groups of 4 mice. The mean effective dose (ED50) in a given test and the neurotoxic dose in the rotarod test (TD50) were estimated on the basis of the results obtained on 3-4 groups of animals consisting of 6 animals.
In the maximal electroshock seizure test (MES), the seizures were induced by 500 V, 25 mA electrical stimulus of 0.2 s in duration. The electrical pulse was generated using an electric shock generator (Rodent shocker, Type 221, Hugo Sachs Elektronik, Germany) and delivered to the animal using electrodes placed on the auricles. The study was conducted 30 minutes/2 hours after intraperitoneal administration of the compounds at various doses. During the experiment, the number of animals that experienced a seizure episode in the form of hindlimb tonic extension was counted (Łuszczki, J.J. et al. Fundam. Clin. Pharmacol. 2008, 22, 69-74).
(§2) The ED50 (effective dose) and TD50 (toxic dose) values along with the corresponding 95% confidence limits were calculated based on the Litchfield and Wilcoxon method (Litchfield, J.T.; Wilcoxon, F. J. Pharmacol. Exp. Ther. 1949, 96, 99-113). To perform a statistical evaluation of the results in the scPTZ test, one-way ANOVA variance analysis followed by Dunnett's post hoc test were used. The values were considered statistically significant if p<0.05.

[2] = system: streptozotocin-induced mechanical allodynia in mice; assay: Streptozotocin-induced diabetic neuropathic pain model, von Frey test; settings: three weeks after STZ
Method: The response was tested 3 weeks after the streptozotocin injection. […] Importantly, d4-(R)-1 completely abolished the symptoms of developing sensory neuropathy at all doses.
All tests/models were performed based on procedures described in the specialist literature: formalin test (Beirith et al. Eur. J. Pharmacol. 1998, 345, 233-245), capsaicin-induced pain model (Mogilski et al. Pharmacol. Biochem. Behav. 2015, 133, 99-110), oxaliplatin-induced neuropathic pain model-von Frey's test (Sałat et al. Pharmacol. Biochem. Behav. 2014, 122, 173-181), streptozotocin-induced diabetic neuropathic pain model-von Frey's test (Sałat et al. Neuropharmacology 2017, 125, 181-188; Tanabe et al. J. Pharmacol. Sci. 2008, 107, 213-220). The test group consisted of 8-10 animals.

[3] = system: motor coordination of mice; assay: Rotarod test (motor coordination, acute neurotoxicity); settings: in mg/kg
Method: as §1
The effect of the tested compounds on motor coordination was assessed in the rotarod test (May Commat, RR 0711 RotaRod, Turkey). The day before the actual experiment, the mice were trained on a rod rotating at 10 revolutions per minute (rpm) for 3 minutes. The experiment was performed 30 minutes and 2 hours after administration of the compounds. The motor coordination of the animals was tested at the speed of the rotating rod: 10 rpm for 60 seconds. The measure of neurotoxicity was the inability to stay on the rod for a given time (Łuszczki, J.J. et al. Eur. Neuropsychopharmacol. 2005, 6, 609-616).
as §2

[4] = 0.5 h after i.p. administration
[5] = 2.0 h after i.p. administration

[2H]C1([2H])C(=O)N([C@H](C)C(=O)NCc2ccccc2)C(=O)C1([2H])[2H] [d4-(R)-1, (R)-N-benzyl-2-(2,5-dioxopyrrolidin-1-yl-3,3,4,4-d4) propanamide]
ED50 MES [1, 4]: 43.7 mg/kg
ED50 MES [1, 5]: 50.1 mg/kg
pain threshold (von Frey) ([2]; 30 mg/kg i.p.): 6.80 ± 0.54 g
pain threshold, % of baseline ([2]; 30 mg/kg i.p.): 115.4%
pain threshold (von Frey) ([2]; 60 mg/kg i.p.): 8.64 ± 0.72 g
pain threshold, % of baseline ([2]; 60 mg/kg i.p.): 146.6%
pain threshold (von Frey) ([2]; 90 mg/kg i.p.): 9.40 ± 0.61 g
pain threshold, % of baseline ([2]; 90 mg/kg i.p.): 159.6%
TD50 Rotarod [3, 4]: 176.7
TD50 Rotarod [3, 5]: >300
